Source: patent US20220402867A1, “SULFO-SUBSTITUTED BIARYL COMPOUND OR SALT THEREOF, PREPARATION METHOD THEREFOR, AND USE THEREOF” (Shanghai Litedd Co., Ltd., priority 2019, published 2022)
Read-outs that look alike come from different tables or passages of the source.

Legend:
[1] = system: mouse spleen lymphocytes (Th17 cells); experiment: Th17 differentiation and IL-17 secretion in mouse lymphocytes; type: cell-based; conditions: Lymphocyte, IL-17 ELISA after 48 hours; for Emax: maximum activation rate
Experimental: Test procedure: the mouse spleen lymphocytes were first isolated, and the lymphocytes were subject to the conditions of stimulating factors (anti-mCD28: 5 μg/mL; rmTGF-β1: 1 ng/mL; rmIL-6: 50 ng/mL; rmIL-23: 5 ng/mL) and differentiated to Th17, while adding different concentrations of compounds. All test compounds were serially diluted at 3-fold dilution with DMSO, with 8 serial dilutions starting from the maximum concentration 3 μM. The supernatants were collected after 48 hours for IL-17 ELISA detection, and compared with the solvent group, to determine the activation rate of the compounds on Th17 cells to secrete IL-17. EC50 values were fitted with Graphad 8.0, and the TOP values fitted by the software was Emax %.

[2] = Metabolic stability in human liver microsomes; type: in vitro ADME; conditions: for microsomal CLint: 0.5 mg protein/mL
How it was run: (§1)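 Compound incubated at 37 °C with 0.5 mg protein/mL liver microsomes plus cofactors in PBS, sampled at 0–60 min, quenched with cold acetonitrile and quantified by HPLC-MS/MS (n=3). Half-life and Clint (μL/min/mg) come from the slope of ln(% remaining) versus time.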

[3] = Metabolic stability in mouse liver microsomes; type: in vitro ADME, CD-1 mice; conditions: for half-life: CD-1; for microsomal CLint: CD-1, 0.5 mg protein/mL
How it was run: as §1

[4] = Pharmacokinetic (PK) assay in mice; type: in vivo; conditions: CD-1 mice; for AUC(0-t) / Cmax / half-life / Vd / bioavailability: mouse, plasma; for Vd: read-out: Vss; for bioavailability: Po 5 mg/kg vs IV 1 mg/kg
How it was run: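 CD-1 mice (3 per group) were dosed IV at 1 mg/kg in 5% DMSO/40% PEG400/55% (20% 3-CD) or by oral gavage at 5 mg/kg in DMSO/1% methylcellulose (1:99). Saphenous blood was sampled from 0 to 24 h into EDTA-K2 tubes for plasma. Plasma levels were measured by UPLC-MS/MS, and PK parameters were calculated from them.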

EC50 [1] | half-life [2] | microsomal CLint [2] | % Remaining (T = 60 min) [2] | % Remaining (T = 60 min) [3] | half-life [3] | microsomal CLint [3] | CL_obs ([4]; IV 1 mg/kg) | AUC(0-t) ([4]; IV 1 mg/kg) | Cmax ([4]; IV 1 mg/kg) | half-life ([4]; IV 1 mg/kg) | Vd ([4]; IV 1 mg/kg) | bioavailability [4] | AUC(0-t) ([4]; Po 5 mg/kg) | Cmax ([4]; Po 5 mg/kg) | half-life ([4]; Po 5 mg/kg) | CL_obs ([4]; IV 1 mg/kg, values marked **) | Vd ([4]; IV 1 mg/kg, values marked *) | Compound | Emax [1]
0.37 µM | > 2.42 h | < 9.6 µL/min/mg | 95.6% | 107.80% | > 2.42 h | < 9.6 µL/min/mg |  |  |  |  |  |  |  |  |  |  |  | CCS(=O)(=O)c1ccc(CC(=O)Nc2cc(Cl)c(-c3ccc(S(C)(=O)=O)cc3)c(Cl)c2)nc1 [Example 8, N-(2,6-Dichloro-4′-(methylsulfonyl)-[1,1′-biphenyl]-4-yl)-2-(5-(ethylsulfonyl)pyridin-2-yl)acetamide] | 85%
0.0057 µM | 2.07 h |  | 71.4% | 28% | 0.543 h |  | 1264.7 mL/h/kg | 786 ng·h/mL | 1320 ng/mL | 0.63 h | 0.713 L/kg | 24.2% | 952 ng·h/mL | 1220 ng/mL | 0.54 h |  |  | CCS(=O)(=O)c1ccc(-c2c(Cl)cc(NC(=O)C(COC)c3ccc(S(=O)(=O)CC)cc3)cc2Cl)cc1 (stereo not drawn) [Example 13, N-(2,6-Dichloro-4′-(ethylsulfonyl)-[1,1′-biphenyl]-4-yl)-2-(4-(ethylsulfonyl)phenyl)-3-methoxypropionamide] | 134%
 | 1.34 h | 17.3 µL/min/mg | 53.9% | 75.50% | 2.21 h | 10.5 µL/min/mg |  | 8280 ng·h/mL | 1160 ng/mL | 4.85 h |  | 57.3% | 21600 ng·h/mL | 1660 ng/mL | 6.95 h | 1.98** mL/min/kg | 0.75 L/kg | COCC(C(=O)Nc1cc(Cl)c(-c2ccc(S(=O)(=O)C3CC3)cc2)c(Cl)c1)c1ccc(S(C)(=O)=O)cc1 (stereo not drawn) [Example 20, N-(2,6-Dichloro-4′-(cyclopropylsulfonyl)-[1,1′-biphenyl]-4-yl)-3-methoxy-2-(4-(methylsulfonyl)phenyl)propionamide] | 
 | > 2.42 h | < 9.6 µL/min/mg | 100.7% | 68.90% | 2.24 h | 10.7 µL/min/mg |  | 3660 ng·h/mL | 1170 ng/mL | 3.88 h |  | 56.3% | 10300 ng·h/mL | 1420 ng/mL | 3.3 h | 4.51** mL/min/kg | 1.1 L/kg | CCS(=O)(=O)c1ccc(C(COC)C(=O)Nc2cc(Cl)c(-c3ccc(S(=O)(=O)C4CC4)cc3)c(Cl)c2)cc1 (stereo not drawn) [Example 16, N-(2,6-Dichloro-4′-(cyclopropylsulfonyl)-[1,1′-biphenyl]-4-yl)-2-(4-(ethylsulfonyl)phenyl)-3-methoxypropionamide] | 
 | 1.68 h | 13.8 µL/min/mg | 69% | 64.4% | 1.56 h | 14.8 µL/min/mg |  | 3810 ng·h/mL | 787 ng/mL | 4.14 h |  | 89.1% | 17100 ng·h/mL | 3040 ng/mL | 3.51 h | 4.31** mL/min/kg | 1.38 L/kg | COCC(C(=O)Nc1ccc(-c2ccc(S(=O)(=O)C3CC3)cc2)c(C(F)(F)F)c1)c1ccc(S(C)(=O)=O)cc1 (single isomer, unassigned) [Example 43, (S)—N-(4′-(cyclopropylsulfonyl)-2-(trifluoromethyl)-[1,1′-biphenyl]-4-yl)-3-methoxy-2-(4-(methylsulfonyl)phenyl)propionamide or (R)—N-(4′-(cyclopropylsulfonyl)-2-(trifluoromethyl)-[1,1′-biphenyl]-4-yl)-3-methoxy-2-(4-(methylsulfonyl)phenyl)propanamide] | 
0.318 µM | > 2.42 h | < 9.6 µL/min/mg | 110.5% | 97.10% | > 2.42 h | < 9.6 µL/min/mg | 128.6 mL/h/kg | 7250 ng·h/mL | 709 ng/mL | 6.33 h | 1.04 L/kg | 86.1% | 31200 ng·h/mL | 3810 ng/mL | 4.52 h |  |  | CS(=O)(=O)c1ccc(CC(=O)Nc2cc(Cl)c(-c3ccc(S(=O)(=O)C4CC4)cc3)c(Cl)c2)cc1 [Example 11, N-(2,6-Dichloro-4′-(cyclopropylsulfonyl)-[1,1′-biphenyl]-4-yl)-2-(4-(methylsulfonyl)phenyl)acetamide] | 123%
0.112 µM | > 2.42 h | < 9.6 µL/min/mg | 83.4% | 22.20% | 0.47 h |  |  |  |  |  |  |  |  |  |  |  |  | CCS(=O)(=O)c1ccc(-c2c(Cl)cc(NC(=O)Cc3ccc(S(C)(=O)=O)cc3)cc2Cl)cc1 [Example 4, N-(2,6-Dichloro-4′-(ethylsulfonyl)-[1,1′-biphenyl]-4-yl)-2-(4-(methylsulfonyl)phenyl)acetamide] | 156%
0.114 µM | > 2.42 h | < 9.6 µL/min/mg | 75.7% | 89.30% | > 2.42 h | < 9.6 µL/min/mg | 426.2 mL/h/kg | 2250 ng·h/mL | 737 ng/mL | 1.76 h | 1.09 L/kg | 112% | 12600 ng·h/mL | 3030 ng/mL | 2.46 h |  |  | CCS(=O)(=O)c1ccc(CC(=O)Nc2cc(Cl)c(-c3ccc(S(C)(=O)=O)cc3)c(Cl)c2)cc1 [Example 2, N-(2,6-dichloro-4′-(methylsulfonyl)-[1,1′-biphenyl]-4-yl)-2-(4-(ethylsulfonyl)phenyl)acetamide] | 203%
0.0114 µM | > 2.42 h | < 9.6 µL/min/mg | 76.7% | 35.50% | 0.707 h |  | 1367 mL/h/kg | 730 ng·h/mL | 1360 ng/mL | 0.45 h | 0.893 L/kg | 38.8% | 1420 ng·h/mL | 1770 ng/mL | 0.5 h |  |  | CCS(=O)(=O)c1ccc(-c2c(Cl)cc(NC(=O)Cc3ccc(S(=O)(=O)CC)cn3)cc2Cl)cc1 [Example 5, N-(2,6-Dichloro-4′-(ethylsulfonyl)-[1,1′-biphenyl]-4-yl)-2-(5-(ethylsulfonyl)pyridin-2-yl)acetamide] | 147%
0.943 µM | > 2.42 h | < 9.6 µL/min/mg | 102.5% | 64.20% | 1.64 h |  |  |  |  |  |  |  |  |  |  |  |  | CCS(=O)(=O)c1ccc(-c2c(Cl)cc(NC(=O)Cc3ccc(S(C)(=O)=O)cn3)cc2Cl)cc1 [Example 9, N-(2,6-Dichloro-4′-(ethylsulfonyl)-[1,1′-biphenyl]-4-yl)-2-(5-(methylsulfonyl)pyridin-2-yl)acetamide] | 65.4%
